Test results taken from ChEMBL document CHEMBL5223163, “In the Quest for Potent and Selective Malic Enzyme 3 Inhibitors for the Treatment of Pancreatic Ductal Adenocarcinoma” (ACS Med Chem Lett, 2023).

What was measured:
BXPC-3 [1] = assay: cells; conditions: Homo sapiens, BXPC-3, 72 h, read-out: INH
Description: Antiproliferative activity against SMAD4/ME2-null human BXPC-3 cells assessed as inhibition of cell growth at 10 uM incubated for 72 hrs by CellTiter-Glo luminescence assay

[2] = molecular target: T1, NADP-dependent malic enzyme, mitochondrial (Homo sapiens) (UniProt Q16798); conditions: dose 0.1 µM, time 190.0 min
T1 sequence (whole entry): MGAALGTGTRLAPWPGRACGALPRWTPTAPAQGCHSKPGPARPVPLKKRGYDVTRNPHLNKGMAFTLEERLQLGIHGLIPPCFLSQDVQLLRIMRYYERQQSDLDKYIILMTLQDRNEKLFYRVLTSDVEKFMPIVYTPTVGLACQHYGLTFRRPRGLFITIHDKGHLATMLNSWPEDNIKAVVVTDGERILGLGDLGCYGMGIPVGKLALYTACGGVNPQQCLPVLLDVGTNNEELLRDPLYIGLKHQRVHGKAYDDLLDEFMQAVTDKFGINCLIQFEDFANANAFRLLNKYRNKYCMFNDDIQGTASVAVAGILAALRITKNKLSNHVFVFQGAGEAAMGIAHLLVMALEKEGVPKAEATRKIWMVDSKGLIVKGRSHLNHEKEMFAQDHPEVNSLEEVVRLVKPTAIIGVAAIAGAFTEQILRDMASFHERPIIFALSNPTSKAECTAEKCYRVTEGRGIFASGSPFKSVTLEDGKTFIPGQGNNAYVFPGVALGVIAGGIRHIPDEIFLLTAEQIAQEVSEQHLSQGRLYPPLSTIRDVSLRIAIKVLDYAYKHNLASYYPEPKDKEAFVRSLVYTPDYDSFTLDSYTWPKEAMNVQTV

BXPC-3 [3] = assay: Antiproliferative activity against SMAD4/ME2-null human BXPC-3 cells assessed as inhibition of cell growth at 1 uM incubated for 72 hrs by CellTiter-Glo luminescence assay; assay type: functional
BXPC-3 [4] = assay: cells; conditions: Homo sapiens, BXPC-3, 72 h
Description: Antiproliferative activity against SMAD4/ME2-null human BXPC-3 cells assessed as inhibition of cell growth incubated for 72 hrs by CellTiter-Glo luminescence assay

[5] = Cytotoxicity against human HCE-T cells assessed as inhibition of cell growth; assay type: toxicity, cell-based
[6] = molecular target: T2, NADP-dependent malic enzyme, mitochondrial (Homo sapiens, UniProt Q16798)
T2 sequence (Q16798 whole entry): T1 sequence (whole entry)
Description: Inhibition of His-tagged human recombinant ME3 (26 to 604 residues) using L-malate and beta-NADP+ as substrate preincubated with enzyme for 5 mins followed by beta-NADP+ challenge and incubated under shaking for 5 mins followed by incubation for 3 hrs without shaking by resorufin dye based fluorescence analysis

[7] = Selectivity for SMAD4/ME2-null human BXPC-3 cells over human HCE-T cells
[8] = molecular target: T3, NADP-dependent malic enzyme (Homo sapiens, UniProt P48163); assay: Inhibition of His-tagged human recombinant full length ME1 using L-malate and beta-NADP+ as substrate preincubated with enzyme for 5 mins followed by beta-NADP+ challenge and incubated under shaking for 5 mins followed by incubation for 2 hrs without shaking by resorufin dye based fluorescence analysis; conditions: read-out: IC50
T3 sequence (P48163 whole entry): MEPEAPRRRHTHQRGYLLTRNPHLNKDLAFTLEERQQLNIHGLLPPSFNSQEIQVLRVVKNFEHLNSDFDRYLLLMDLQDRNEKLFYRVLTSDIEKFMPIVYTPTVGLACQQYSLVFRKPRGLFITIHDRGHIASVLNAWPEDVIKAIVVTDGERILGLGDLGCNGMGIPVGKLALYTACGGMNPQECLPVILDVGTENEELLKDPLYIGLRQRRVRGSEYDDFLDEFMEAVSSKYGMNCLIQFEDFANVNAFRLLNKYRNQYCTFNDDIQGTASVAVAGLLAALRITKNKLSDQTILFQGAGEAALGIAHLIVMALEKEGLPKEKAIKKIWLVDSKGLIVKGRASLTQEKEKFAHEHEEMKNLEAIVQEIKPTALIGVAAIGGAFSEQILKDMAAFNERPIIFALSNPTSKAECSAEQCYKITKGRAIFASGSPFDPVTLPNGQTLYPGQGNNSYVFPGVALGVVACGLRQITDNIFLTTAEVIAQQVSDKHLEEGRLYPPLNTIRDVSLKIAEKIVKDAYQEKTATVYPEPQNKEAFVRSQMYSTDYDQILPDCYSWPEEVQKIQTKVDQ

[9] = molecular target: NAD-dependent malic enzyme, mitochondrial (Homo sapiens, UniProt P23368); assay: Inhibition of His-tagged human recombinant full length ME2 using L-malate and beta-NAD+ as substrate preincubated with enzyme for 5 mins followed by beta-NAD+ challenge and incubated under shaking for 5 mins followed by incubation for 2 hrs without shaking by resorufin dye based fluorescence analysis; conditions: read-out: IC50
Sequence of NAD-dependent malic enzyme, mitochondrial (P23368 whole entry): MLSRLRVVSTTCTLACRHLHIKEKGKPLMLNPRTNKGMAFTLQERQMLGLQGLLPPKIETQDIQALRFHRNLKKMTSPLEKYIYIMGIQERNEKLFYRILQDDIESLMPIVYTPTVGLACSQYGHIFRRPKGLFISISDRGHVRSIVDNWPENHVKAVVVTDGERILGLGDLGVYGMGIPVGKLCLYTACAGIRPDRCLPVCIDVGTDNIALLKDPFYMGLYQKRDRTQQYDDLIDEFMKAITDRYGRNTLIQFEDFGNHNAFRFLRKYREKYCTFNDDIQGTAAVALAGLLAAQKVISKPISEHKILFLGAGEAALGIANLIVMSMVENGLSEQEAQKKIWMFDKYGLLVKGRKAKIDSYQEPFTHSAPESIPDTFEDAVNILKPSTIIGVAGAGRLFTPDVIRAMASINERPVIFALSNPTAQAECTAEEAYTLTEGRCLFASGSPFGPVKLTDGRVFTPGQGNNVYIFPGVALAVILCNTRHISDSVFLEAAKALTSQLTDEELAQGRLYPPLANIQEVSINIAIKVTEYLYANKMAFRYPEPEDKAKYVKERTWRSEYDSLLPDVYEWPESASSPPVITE

Row | SMILES | inhibition at 10 µM (BXPC-3 [1]) [%] | inhibition [2] [%] | inhibition at 1 µM (BXPC-3 [3]) [%] | IC50 (BXPC-3 [4]) [µM] | IC50 [5] [µM] | IC50 [6] [µM] | Selectivity ratio [7] | IC50 [8] [µM] | IC50 [9] [µM]
1 | CC(C)CN1CCN(c2ccc(O)cn2)CC1 | 6 | 0 | 0 |  |  |  |  |  | 
2 | CC(C)(CC(=O)N1CCN(c2ccc(O)cn2)CC1)c1ccc(Cl)cc1 | 97 |  |  | 5.4 | > 30 | 0.36 | 5 | 1.5 | 2.8
3 | O=C(C1CC1)N1CCN(c2ccc(O)cn2)CC1 | 10 | 14 | 0 |  |  |  |  |  | 
4 | CC(=O)N1CCN(c2ccc(O)cn2)CC1 | 0 | 23 | 0 |  |  |  |  |  | 
5 | O=C(Nc1ccccc1)C1CCN(c2ccc(O)cc2)CC1 |  |  |  |  |  | 0.13 |  |  | 
6 | O=C(O)c1cc2ccccc2c(Cc2cc3ccccc3c(C(=O)O)c2O)c1O |  |  |  |  |  | 5.6 |  | 10.3 | 2.8
7 | CCCCOc1ccc(CCC(=O)N2CCN(c3ccc(O)cc3)CC2)cc1 | 29 |  |  |  |  | 0.06 | 5 | 0.42 | 0.35
8 | Oc1ccc(N2CCNCC2)nc1 | 12 | 0 | 2 |  |  |  |  |  | 
9 | O=C(Nc1nnn[nH]1)C1c2ccccc2OC2C=CC=CC21 (stereo unspecified) |  |  |  |  |  | 21 |  | 0.22 | 0.2
10 | O=C(Cc1ccccc1)NC1CCN(c2ccc(O)cc2)CC1 |  |  |  |  |  | 0.07 |  |  | 
11 | O=C(Cc1ccc(Cl)cc1)N1CCN(c2ccc(O)cc2)CC1 | 80 |  |  | 5.7 |  | 0.13 | 5 | 0.15 | 0.15
12 | COCCOc1ccc(CCC(=O)N2CCN(c3ccc(O)cn3)CC2)cc1 | 3 |  |  |  |  | 0.58 | 5 | 3.5 | 2.6
13 | O=C(CCc1ccccc1)N1CCN(c2ccc(O)cc2)CC1 | 93 |  |  | 3.6 | > 30 | 0.1 | 5 | 0.27 | 0.27
14 | Oc1ccc(N2CCN(CC3CC3)CC2)nc1 | 0 | 0 | 0 |  |  |  |  |  | 
15 | O=C(Cc1ccc(C(F)(F)F)cc1)N1CCN(c2ccc(O)cc2)CC1 | 39 |  |  |  |  | 0.33 | 5 | 0.21 | 0.41
16 | O=C(CCc1cccs1)N1CCN(c2ccc(O)cn2)CC1 | 76 |  |  | 4.6 | 25 | 0.16 | 5 | 1.32 | 1.29

Row | SMILES | inhibition at 10 µM (BXPC-3 [1]) [%] | inhibition [2] [%] | inhibition at 1 µM (BXPC-3 [3]) [%] | IC50 (BXPC-3 [4]) [µM] | IC50 [5] [µM] | IC50 [6] [µM] | Selectivity ratio [7] | IC50 [8] [µM] | IC50 [9] [µM]
17 | COc1ccc(N2CCN(C(=O)CCc3ccccc3)CC2)nc1 | 13 |  |  |  |  |  |  |  | 
18 | O=C(CCc1ccc(Cl)cc1)N1CCN(c2ccc(O)cn2)CC1 | 71 |  |  | 6.3 | > 30 | 0.14 | 5 | 1.02 | 1.59
19 | O=C(CN1CCN(c2ccc(O)cc2)CC1)Nc1ccccc1 | 18 |  |  |  |  | 0.11 | 5 | 0.34 | 0.36
20 | COc1ccc(CCC(=O)N2CCN(c3ccc(O)cn3)CC2)cc1 | 13 |  |  |  |  | 0.47 | 5 | 1.9 | 2.5
21 | O=C1CC(N2CCN(c3ccc(O)cc3)CC2)C(=O)N1c1ccccc1 (stereo unspecified) | 0 |  |  |  |  | 0.15 | 5 | 0.22 | 0.2
22 | O=C(Nc1ccccc1)N1CCN(c2ccc(O)cc2)CC1 | 28 |  |  | 31 |  | 0.11 | 5 | 0.2 | 0.22
23 | CCCCOc1ccc(CCC(=O)N2CCN(c3ccc(O)cn3)CC2)cc1 | 7 |  |  | 15 |  | 0.39 | 5 | 1.31 | 3.9
24 | O=C(Cc1ccccc1)N1CCN(c2ccc(O)cn2)CC1 |  |  |  |  |  | 0.2 |  | 1.6 | 0.98
25 | O=C(CCc1ccccc1)N1CCN(c2ccc(F)cn2)CC1 | 0 |  |  | > 30 |  |  |  |  | 
26 | O=C(/C=C/c1ccccc1)N1CCN(c2ccc(O)cc2)CC1 | 29 |  |  |  |  | 0.08 | 5 | 0.17 | 0.23
27 | O=C(COc1ccccc1)N1CCN(c2ccc(O)cc2)CC1 | 55 |  |  |  |  | 0.13 | 5 | 0.63 | 0.39
28 | O=C(CCc1ccc(F)cc1)N1CCN(c2ccc(O)cn2)CC1 | 48 |  |  |  |  | 0.41 | 5 | 1.74 | 1.66
29 | O=C(Cc1ccccc1)N1CCN(c2ccc(O)cc2)CC1 | 80 |  |  | 6 |  | 0.1 | 5 | 0.18 | 0.19
30 | O=C(Nc1nnn[nH]1)c1cc(-c2ccccc2)nc2ccccc12 |  |  |  |  |  | 5.1 |  | 13.8 | 1.7
31 | CC(C)(CC(=O)N1CCN(c2ccc(O)cn2)CC1)c1ccc(F)cc1 | 100 |  |  | 5.9 | > 30 | 0.31 | 5 | 1.3 | 1.11
32 | O=C(CCc1cc2ccccc2s1)N1CCN(c2ccc(O)cn2)CC1 | 46 |  |  |  |  | 0.24 | 5 | 1.2 | 1.63
